Measurements reported in patent US7652047B2, “Phenylamino isothiazole carboxamidines as MEK inhibitors” (Ardea Biosciences, Inc., priority 2005, dated 2010).

molecular target: T1, MEK1^CA (human GST-MEK1, constitutively active, Ser218Asp and Ser222Asp) (Homo sapiens, UniProt Q02750, S218D/S222D); experiment: MEK1 enzymatic activity assay (MEK1^CA / ERK2 / MBP, [γ-33P]ATP incorporation); format: biochemical; conditions: Table 1, compounds of formula I; read-out: Avg IC50
T1 construct: GST; made in house; host or cells: Escherichia coli
Method in brief: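 Cascade assay: 25 µl reactions with 0.002 nmol E. coli-expressed GST-MEK1 S218D/S222D, 0.02 nmol His-tagged mouse ERK2, 0.25 nmol MBP, 0.25 nmol unlabeled ATP and 0.1 µCi [γ-33P]ATP. Compound preincubated 30 min at ambient temperature with MEK1/ERK2; stopped with TCA, 33P-labelled protein filter-captured and scintillation-counted.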

T1 sequence (Q02750 whole entry S218D/S222D): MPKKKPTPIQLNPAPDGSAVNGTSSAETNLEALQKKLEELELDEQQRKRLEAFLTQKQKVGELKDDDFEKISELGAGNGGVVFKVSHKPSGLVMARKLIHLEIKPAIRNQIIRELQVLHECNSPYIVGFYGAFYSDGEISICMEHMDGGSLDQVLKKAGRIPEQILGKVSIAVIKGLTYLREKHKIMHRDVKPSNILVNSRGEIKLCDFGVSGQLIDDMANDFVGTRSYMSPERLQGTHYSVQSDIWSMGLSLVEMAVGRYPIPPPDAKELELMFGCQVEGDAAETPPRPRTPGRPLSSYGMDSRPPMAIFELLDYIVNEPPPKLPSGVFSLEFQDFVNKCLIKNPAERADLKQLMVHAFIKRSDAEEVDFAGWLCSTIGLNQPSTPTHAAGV

Row | Structure (SMILES) | IC50 [nM]
1 | CC(CO)NC(=N)c1c(O)nsc1Nc1ccc(Oc2ccc(C(F)(F)F)cc2)cc1 (centres unmarked) [compound 377] | > 500
2 | CC(CO)NC(=N)c1c(O)nsc1Nc1ccc(Oc2ccc(C(F)(F)F)cc2)c(F)c1 (centres unmarked) [compound 378] | 100 to 500
3 | Cc1cc(Nc2snc(O)c2C(=N)NC(C)C)ccc1Oc1cc(F)ccc1Cl [compound 380] | 100 to 500
4 | CC(C)NC(=N)c1c(O)nsc1Nc1ccc(Oc2cc(F)ccc2Cl)c(Cl)c1 [compound 382] | 1 to 100
5 | CC(C)NC(=N)c1c(O)nsc1Nc1ccc(Oc2cccc(Cl)c2Cl)c(Cl)c1 [compound 383] | 1 to 100
6 | CC(C)NC(=N)c1c(O)nsc1Nc1ccc(Oc2cc(C(F)(F)F)ccc2Cl)cc1F [compound 384] | 100 to 500
7 | CC(CO)N=C(N)c1c(O)nsc1Nc1ccc(Oc2cc(C(F)(F)F)ccc2I)cc1 (centres unmarked) [compound 385] | 1 to 100
8 | Cc1cc(Nc2snc(O)c2C(=N)NC(C)CO)ccc1Oc1ccc(C(F)(F)F)cc1 (centres unmarked) [compound 386] | > 500
9 | CC(C)NC(=N)c1c(O)nsc1Nc1ccc(Oc2ccc(F)cc2)c(Cl)c1 [compound 387] | 100 to 500
10 | CC(C)NC(=N)c1c(O)nsc1Nc1ccc(Oc2ccc(C(F)(F)F)cc2)c(Cl)c1 [compound 388] | 100 to 500
11 | Cc1cc(Nc2snc(O)c2C(=N)NC(C)C)ccc1Oc1ccc(C(F)(F)F)cc1 [compound 389] | > 500
12 | CC(C)NC(=N)c1c(O)nsc1Nc1ccc(Oc2ccc(C(F)(F)F)cc2)c(F)c1 [compound 390] | 100 to 500
13 | CC(C)NC(=N)c1c(O)nsc1Nc1ccc(Oc2ccc(C(F)(F)F)cc2)cc1 [compound 391] | 100 to 500
14 | CC(CO)NC(=N)c1c(O)nsc1Nc1ccc(Oc2ccc(F)cc2)c(Cl)c1 (centres unmarked) [compound 392] | 100 to 500
15 | CC(CO)NC(=N)c1c(O)nsc1Nc1ccc(Oc2ccc(F)cc2)c(F)c1 (centres unmarked) [compound 393] | 1 to 100
16 | CC(CO)NC(=N)c1c(O)nsc1Nc1ccc(Oc2cc(C(F)(F)F)ccc2Cl)cc1F (centres unmarked) [compound 394] | 1 to 100
17 | CC(C)NC(=N)c1c(O)nsc1Nc1ccc(Oc2ccc(F)cc2)c(F)c1 [compound 395] | 100 to 500
18 | CC(CO)NC(=N)c1c(O)nsc1Nc1ccc(Oc2ccc(C(F)(F)F)cc2)c(Cl)c1 (centres unmarked) [compound 396] | 100 to 500
19 | Cc1cc(Nc2snc(O)c2C(=N)NC(C)C)ccc1Oc1ccc(F)cc1 [compound 397] | > 500

Row | Structure (SMILES) | IC50 [nM]
20 | CC(C)NC(=N)c1c(O)nsc1Nc1ccc(Oc2ccc(F)cc2F)c(F)c1 [compound 398] | 100 to 500
21 | Cc1cc(Oc2ccc(F)cc2Cl)ccc1Nc1snc(O)c1C(=N)NC(C)C [compound 401] | 1 to 100
22 | Cc1cc(Oc2ccc(Cl)cc2F)ccc1Nc1snc(O)c1C(=N)NC(C)C [compound 402] | 1 to 100
23 | CC(C)NC(=N)c1c(O)nsc1Nc1ccc(Oc2ccc(F)cc2Cl)cc1C(F)(F)F [compound 407] | 1 to 100
24 | CC(CO)NC(=N)c1c(O)nsc1Nc1ccc(Oc2ccc(F)cc2Cl)cc1C(F)(F)F (centres unmarked) [compound 408] | 1 to 100
25 | CCOC(=O)c1cccc(Oc2ccc(Nc3snc(O)c3C(=N)NC(C)C)cc2)c1 [compound 410] | 1 to 100
26 | N=C(NCCO)c1c(O)nsc1Nc1ccc(Oc2cc(F)cc(F)c2)cc1 [compound 411] | 100 to 500
27 | N=C(NCCN1CCNCC1)c1c(O)nsc1Nc1ccc(Oc2cc(F)cc(F)c2)cc1 [compound 412] | 1 to 100
28 | N=C(NCCN1CCOCC1)c1c(O)nsc1Nc1ccc(Oc2cc(F)cc(F)c2)cc1 [compound 413] | 100 to 500
29 | N=C(NCC1CCCO1)c1c(O)nsc1Nc1ccc(Oc2cc(F)cc(F)c2)cc1 (centres unmarked) [compound 414] | 1 to 100
30 | N=C(NCc1ccccn1)c1c(O)nsc1Nc1ccc(Oc2cc(F)cc(F)c2)cc1 [compound 415] | 1 to 100
31 | N=C(NC1CC1)c1c(O)nsc1Nc1ccc(Oc2cc(F)cc(F)c2)cc1 [compound 416] | 100 to 500
32 | N=C(c1c(O)nsc1Nc1ccc(Oc2cc(F)cc(F)c2)cc1)N1CCCCC1 [compound 417] | > 500
33 | CN(C)CCNC(=N)c1c(O)nsc1Nc1ccc(Oc2cc(F)cc(F)c2)cc1 [compound 418] | 100 to 500
34 | CN1CCN(C(=N)c2c(O)nsc2Nc2ccc(Oc3cc(F)cc(F)c3)cc2)CC1 [compound 419] | > 500
35 | N=C(c1c(O)nsc1Nc1ccc(Oc2cc(F)cc(F)c2)cc1)N1CCOCC1 [compound 420] | > 500
36 | CC(C)N(O)C(=N)c1c(O)nsc1Nc1ccc(Oc2cc(F)cc(F)c2)cc1 [compound 421] | 1 to 100
37 | CC(O)CNC(=N)c1c(O)nsc1Nc1ccc(Oc2cc(F)cc(F)c2)cc1 (centres unmarked) [compound 422] | 1 to 100
38 | N=C(NCC1CCCCC1)c1c(O)nsc1Nc1ccc(Oc2cc(F)cc(F)c2)cc1 [compound 423] | 1 to 100

Row | Structure (SMILES) | IC50 [nM]
39 | N=C(NCc1ccccc1)c1c(O)nsc1Nc1ccc(Oc2cc(F)cc(F)c2)cc1 [compound 424] | 1 to 100
40 | CN(C)CCNC(=N)c1c(O)nsc1Nc1ccc(Oc2ccc(Cl)cc2Cl)cc1 [compound 425] | 100 to 500
41 | N=C(NCCN1CCOCC1)c1c(O)nsc1Nc1ccc(Oc2ccc(Cl)cc2Cl)cc1 [compound 426] | 1 to 100
42 | N=C(c1c(O)nsc1Nc1ccc(Oc2ccc(Cl)cc2Cl)cc1)N1CCCCC1 [compound 427] | > 500
43 | N=C(NCCN1CCNCC1)c1c(O)nsc1Nc1ccc(Oc2ccc(Cl)cc2Cl)cc1 [compound 428] | 100 to 500
44 | CC(C)NC(=N)c1c(O)nsc1Nc1ccc(Oc2cccc(F)c2F)nc1 [compound 429] | 100 to 500
45 | CC(C)NC(=N)c1c(O)nsc1Nc1ccc(Oc2cccc(C(F)(F)F)c2)nc1 [compound 430] | 100 to 500
46 | CC(C)NC(=N)c1c(O)nsc1Nc1ccc(Oc2cc(Cl)ccc2Cl)nc1 [compound 431] | 1 to 100
47 | CC(CO)NC(=N)c1c(O)nsc1Nc1ccc(Oc2cccc(F)c2F)nc1 (centres unmarked) [compound 432] | 100 to 500
48 | CC(CO)NC(=N)c1c(O)nsc1Nc1ccc(Oc2cccc(C(F)(F)F)c2)nc1 (centres unmarked) [compound 433] | 1 to 100
49 | CC(CO)NC(=N)c1c(O)nsc1Nc1ccc(Oc2cc(Cl)ccc2Cl)nc1 (centres unmarked) [compound 434] | 1 to 100
50 | N=C(NN1CCCCC1)c1c(O)nsc1Nc1ccc(Oc2cc(F)cc(F)c2)cc1 [compound 435] | 1 to 100
51 | N=C(NN1CCOCC1)c1c(O)nsc1Nc1ccc(Oc2cc(F)cc(F)c2)cc1 [compound 436] | 100 to 500
52 | Cc1cc(Oc2cccc(C(F)(F)F)c2)ccc1Nc1snc(O)c1C(=N)NC(C)C [compound 437] | 1 to 100
53 | Cc1cc(Oc2cccc(C(F)(F)F)c2)ccc1Nc1snc(O)c1C(=N)NC(C)CO (centres unmarked) [compound 438] | 1 to 100
54 | CC(CO)NC(=N)c1c(O)nsc1Nc1ccccc1Oc1ccccc1 (centres unmarked) [compound 439] | > 500
55 | N=C(NCC1CCCCC1)c1c(O)nsc1Nc1ccc(Oc2cc(Cl)ccc2Cl)cc1 [compound 441] | 1 to 100
56 | CN(C)CCNC(=N)c1c(O)nsc1Nc1ccc(Oc2cc(Cl)ccc2Cl)cc1 [compound 443] | 1 to 100

More lines, now with the values ahead:

Row | IC50 [nM] | Structure (SMILES)
57 | 1 to 100 | N=C(NCc1ccccn1)c1c(O)nsc1Nc1ccc(Oc2cc(Cl)ccc2Cl)cc1 [compound 448]
58 | 1 to 100 | N=C(NN1CCCCC1)c1c(O)nsc1Nc1ccc(Oc2cc(Cl)ccc2Cl)cc1 [compound 449]
59 | 1 to 100 | N=C(NO)c1c(O)nsc1Nc1ccc(Oc2cc(Cl)ccc2Cl)cc1 [compound 450]
60 | 1 to 100 | N=C(NCc1ccccc1)c1c(O)nsc1Nc1ccc(Oc2cc(Cl)ccc2Cl)cc1 [compound 454]
61 | 1 to 100 | CC(C)N(O)C(=N)c1c(O)nsc1Nc1ccc(Oc2cc(Cl)ccc2Cl)cc1 [compound 455]
62 | 100 to 500 | CC(C)NC(=N)c1c(O)nsc1Nc1ccccc1Oc1ccccc1 [compound 456]
63 | 1 to 100 | Cc1cc(Oc2cc(F)cc(F)c2)ccc1Nc1snc(O)c1C(=N)NC(C)C [compound 457]
64 | 1 to 100 | Cc1cc(Oc2cc(F)cc(F)c2)ccc1Nc1snc(O)c1C(=N)NC(C)CO (centres unmarked) [compound 458]
65 | 1 to 100 | Cc1cc(Oc2ccc(F)c(F)c2)ccc1Nc1snc(O)c1C(=N)NC(C)C [compound 459]
66 | 1 to 100 | Cc1cc(Oc2cc(Cl)ccc2Cl)ccc1Nc1snc(O)c1C(=N)NC(C)C [compound 460]
67 | 1 to 100 | Cc1cc(Oc2cc(Cl)ccc2Cl)ccc1Nc1snc(O)c1C(=N)NC(C)CO (centres unmarked) [compound 461]
68 | 100 to 500 | Cc1cc(Oc2ccc(F)cc2Cl)ccc1Nc1snc(O)c1C(=N)N(O)C(C)C [compound 462]
69 | 1 to 100 | Cc1cc(Oc2ccc(F)cc2Cl)ccc1Nc1snc(O)c1C(=N)N(O)Cc1ccccc1 [compound 463]
70 | 1 to 100 | Cc1cc(Oc2cccc(F)c2F)ccc1Nc1snc(O)c1C(=N)NC(C)CO (centres unmarked) [compound 464]
71 | 100 to 500 | Cc1cc(Oc2cc(F)cc(F)c2)ccc1Nc1snc(O)c1C(=N)NO [compound 465]
72 | 1 to 100 | Cc1cc(Oc2cc(F)cc(F)c2)ccc1Nc1snc(O)c1C(=N)NCC(O)CO (centres unmarked) [compound 466]
73 | 1 to 100 | COCC(C)NC(=N)c1c(O)nsc1Nc1ccc(Oc2cc(F)cc(F)c2)cc1C (centres unmarked) [compound 467]
74 | 1 to 100 | CCC(CO)NC(=N)c1c(O)nsc1Nc1ccc(Oc2cc(F)cc(F)c2)cc1C (centres unmarked) [compound 468]
75 | 1 to 100 | CC[C@H](CO)NC(=N)c1c(O)nsc1Nc1ccc(Oc2cc(F)cc(F)c2)cc1C [compound 469]
76 | 1 to 100 | COCCNC(=N)c1c(O)nsc1Nc1ccc(Oc2cc(F)cc(F)c2)cc1C [compound 470]
77 | > 500 | Cc1cc(Oc2cccc(C(F)(F)F)c2)ccc1Nc1snc(O)c1C(=N)NO [compound 471]
78 | 1 to 100 | Cc1cc(Oc2cccc(C(F)(F)F)c2)ccc1Nc1snc(O)c1C(=N)NCC(O)CO (centres unmarked) [compound 472]
79 | 1 to 100 | CCC(CO)NC(=N)c1c(O)nsc1Nc1ccc(Oc2cccc(C(F)(F)F)c2)cc1C (centres unmarked) [compound 473]
80 | 1 to 100 | CC[C@H](CO)NC(=N)c1c(O)nsc1Nc1ccc(Oc2cccc(C(F)(F)F)c2)cc1C [compound 474]
